The text below walks through data of patent publication US20240076293A1, “Compositions and Methods for Inhibiting Fibrosis, Inflammation and Cancer” (Georgia Tech Research Corporation, priority 2020, published 2024).

What all share (format): cell-based
Data set [1] is described as follows: Anti-proliferation IC50, MRC-5. The settings on record: human, MRC-5 cells; Table 1, compounds of formula I; NI = no inhibition up to 500 μM.
Data set [2] concerns A549. The experiment in a line: Anti-proliferation IC50, A549. Conditions: Homo sapiens.
Data set [3] has as its system Hep-G2. In words: Anti-proliferation IC50, Hep-G2. Conditions: Homo sapiens, HepG2.
Data set [4] deals with VERO. In words: Anti-proliferation IC50, VERO. Conditions: Chlorocebus sabaeus.
Setting [5] is: Table 1, compounds of formula I, NI = no inhibition up to 500 μM, read-out: A549 (IC50).
Where [6] appears, read: Table 1, compounds of formula I, NI = no inhibition up to 500 μM, read-out: Hep-G2 (IC50).
The mark [7] stands for this setting: Table 1, compounds of formula I, NI = no inhibition up to 500 μM, read-out: VERO (IC50).

Structures are written as SMILES. Like-named read-outs stand apart in the source and are kept apart here. Bounds are passed on as bounds.

On to `CC[C@H]1OC(=O)[C@@H](C)[C@@H](O[C@@H]2C[C@](C)(OC)[C@H](O)[C@@H](C)O2)[C@@H](C)[C@@H](O[C@H]2O[C@@H](C)C[C@@H](N(C)C)[C@@H]2OC(=O)/C=C/C=C/c2ccc3c(c2)OCO3)[C@](C)(OC)C[C@@H](C)C(=O)[C@H](C)[C@H](O)[C@]1(C)O`, for which the IC50 in data set [1] came out at 7.8 ± 0.7 µM; in data set [2] (setting [5]), 16.9 ± 0.7 µM; in data set [3] (setting [6]) it was 5.6 ± 0.1 µM; in data set [4] (setting [7]), 21 ± 2.3 µM.
Consider `CC[C@@H]1OC(=O)[C@@H](C)[C@H](O[C@H]2C[C@@](C)(OC)[C@@H](O)[C@H](C)O2)[C@@H](C)[C@H](O[C@H]2O[C@@H](C)C[C@@H](N(C)C(=O)/C=C/C(=O)OC)[C@@H]2O)C(C)(O)C[C@H](C)CN(C)[C@@H](C)[C@H](O)[C@@]1(C)O` (stereo partly shown), for which the IC50 in data set [2] (Table 2, compounds of formula II, read-out: Anti-proliferation IC50 A549) is 214 µM; in data set [3] (Table 2, compounds of formula II, read-out: Anti-proliferation IC50 Hep-G2) it was 126 µM; in data set [4] (Table 2, compounds of formula II, read-out: Anti-proliferation IC50 VERO), 212 µM.
On to `CC[C@H]1OC(=O)[C@H](C)[C@@H](O[C@H]2C[C@@](C)(OC)[C@@H](O)[C@H](C)O2)[C@H](C)[C@@H](O[C@@H]2O[C@H](C)C[C@H](N(C)C)[C@H]2O)[C@](C)(O)C[C@@H](C)CN(C)[C@H](C)[C@@H](O)[C@]1(C)O` [Azithromycin (AZM), Azithromycin, reference compound], for which the IC50 worked out at 127 ± 1 µM in data set [1], 204 ± 4.5 µM in data set [2] (setting [5]), 85.3 ± 0.9 µM in data set [3] (setting [6]) and 222 ± 18.1 µM in data set [4] (setting [7]).
For `CC[C@H]1OC(=O)[C@H](C)[C@@H](O[C@H]2C[C@@](C)(OC)[C@@H](O)[C@H](C)O2)[C@H](C)[C@@H](O[C@@H]2O[C@H](C)C[C@H](N(C)C)[C@H]2O)[C@](C)(OC)C[C@@H](C)C(=O)[C@H](C)[C@@H](O)[C@]1(C)O` [Clarithromycin (CLM), Clarithromycin, reference compound] the same measures were 138.1 ± 1.1 µM, more than 500 µM, 130 µM and more than 500 µM.
For `CCC1OC(=O)[C@H](C)[C@H](OC2C[C@@](C)(OC)[C@@H](O)[C@H](C)O2)[C@H](C)[C@@H](OC2O[C@H](C)C[C@H](N(C)Cc3ccc(-n4cc(C)ccc4=O)cc3)[C@H]2O)[C@@](C)(OC)C[C@@H](C)C(=O)[C@H](C)[C@@H](O)[C@]1(C)O` (stereo partly shown) [Compound 10a] the same measures were more than 500 µM, more than 500 µM, more than 500 µM and more than 500 µM.
For `CCC1OC(=O)[C@H](C)[C@H](OC2C[C@@](C)(OC)[C@@H](O)[C@H](C)O2)[C@H](C)[C@@H](OC2O[C@H](C)C[C@H](N(C)Cc3cn(Cc4ccc(-n5cc(C)ccc5=O)cc4)nn3)[C@H]2O)[C@@](C)(OC)C[C@@H](C)C(=O)[C@H](C)[C@@H](O)[C@]1(C)O` (stereo partly shown) [Compound 10b] the same measures were 102.6 ± 0.8 µM, 118 ± 28.4 µM, 116 ± 16 µM and 153 ± 19 µM.
For the compound `CCC1OC(=O)[C@H](C)[C@H](OC2C[C@@](C)(OC)[C@@H](O)[C@H](C)O2)[C@H](C)[C@@H](OC2O[C@H](C)C[C@H](N(C)Cc3ccc(-c4cn(Cc5ccc(-n6cc(C)ccc6=O)cc5)nn4)cc3)[C@H]2O)[C@@](C)(OC)C[C@@H](C)C(=O)[C@H](C)[C@@H](O)[C@]1(C)O` (stereo partly shown) [Compound 10c], the IC50 in data set [1] is 12.3 ± 1.8 µM; in data set [2] (setting [5]) it was 11.1 ± 2.7 µM; in data set [3] (setting [6]), 20.3 ± 1 µM; in data set [4] (setting [7]) it was 5.1 ± 0.2 µM.
Regarding `CCC1OC(=O)[C@H](C)[C@H](OC2C[C@@](C)(OC)[C@@H](O)[C@H](C)O2)[C@H](C)[C@@H](OC2O[C@H](C)C[C@H](N(C)CCc3ccc(-n4cc(C)ccc4=O)cc3)[C@H]2O)[C@@](C)(OC)C[C@@H](C)C(=O)[C@H](C)[C@@H](O)[C@]1(C)O` (stereo partly shown) [Compound 12a], the IC50 in data set [1] is 119 µM; in data set [2] (setting [5]), more than 500 µM; in data set [3] (setting [6]) it was more than 500 µM; in data set [4] (setting [7]), more than 500 µM.
